Consider 29 compounds from patent publication US10758534B2 (Vertex Pharmaceuticals Incorporated, priority 2014, dated 2020).

A value given as a limit tells only on which side of the number the result lay.

Usually EC30 stands for the point of the concentration-response curve where the effect stands at 30%.

T1 sequence (P13569 with tags, fused parts or gaps DEL508-508): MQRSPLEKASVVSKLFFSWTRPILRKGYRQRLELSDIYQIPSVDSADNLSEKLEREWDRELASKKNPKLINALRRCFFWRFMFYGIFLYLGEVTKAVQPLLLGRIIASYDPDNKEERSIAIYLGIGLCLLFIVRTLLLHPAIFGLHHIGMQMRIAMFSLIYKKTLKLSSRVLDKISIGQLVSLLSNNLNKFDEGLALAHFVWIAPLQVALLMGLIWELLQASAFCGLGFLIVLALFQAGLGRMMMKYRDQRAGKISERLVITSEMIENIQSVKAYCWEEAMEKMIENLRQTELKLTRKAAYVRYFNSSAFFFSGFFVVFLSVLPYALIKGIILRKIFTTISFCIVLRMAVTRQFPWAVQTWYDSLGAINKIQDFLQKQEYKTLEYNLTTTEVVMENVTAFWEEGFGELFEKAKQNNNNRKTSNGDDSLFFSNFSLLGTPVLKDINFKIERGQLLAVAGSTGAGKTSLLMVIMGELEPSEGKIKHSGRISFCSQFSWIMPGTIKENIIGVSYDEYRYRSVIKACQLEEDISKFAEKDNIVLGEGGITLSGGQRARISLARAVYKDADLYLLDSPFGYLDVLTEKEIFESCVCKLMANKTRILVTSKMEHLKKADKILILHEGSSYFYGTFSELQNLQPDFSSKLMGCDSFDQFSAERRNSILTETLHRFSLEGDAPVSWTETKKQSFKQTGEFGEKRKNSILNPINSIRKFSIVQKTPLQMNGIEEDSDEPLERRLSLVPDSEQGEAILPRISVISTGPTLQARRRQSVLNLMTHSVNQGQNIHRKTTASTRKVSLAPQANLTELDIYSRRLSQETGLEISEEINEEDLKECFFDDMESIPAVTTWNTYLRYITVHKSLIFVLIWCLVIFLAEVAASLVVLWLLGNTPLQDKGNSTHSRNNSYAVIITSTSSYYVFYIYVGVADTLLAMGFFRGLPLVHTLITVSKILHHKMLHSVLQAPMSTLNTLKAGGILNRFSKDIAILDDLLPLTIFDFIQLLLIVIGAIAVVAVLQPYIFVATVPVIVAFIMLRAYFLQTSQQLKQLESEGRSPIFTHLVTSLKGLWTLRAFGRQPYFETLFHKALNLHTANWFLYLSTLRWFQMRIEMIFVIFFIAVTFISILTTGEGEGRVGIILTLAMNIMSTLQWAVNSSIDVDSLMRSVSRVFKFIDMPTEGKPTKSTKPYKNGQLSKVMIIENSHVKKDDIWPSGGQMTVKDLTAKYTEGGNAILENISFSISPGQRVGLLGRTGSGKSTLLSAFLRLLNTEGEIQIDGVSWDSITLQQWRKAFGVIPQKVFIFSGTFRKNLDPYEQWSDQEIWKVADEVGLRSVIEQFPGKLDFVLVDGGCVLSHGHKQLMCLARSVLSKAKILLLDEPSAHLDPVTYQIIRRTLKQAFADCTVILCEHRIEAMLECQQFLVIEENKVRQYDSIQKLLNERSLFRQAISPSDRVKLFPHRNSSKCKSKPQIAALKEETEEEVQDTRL

One assay concerns the target T1, F508del (Homo sapiens, UniProt P13569, DEL508-508).
T1 construct: expressed in transfected cells
Kind of assay: Protocol 2: FRET membrane potential optical assay (VIPR), identification of correction compounds. In kind it is cell-based. Particulars: F508del CFTR modulator activity; compounds of Table 1; read-out: EC30. The method in brief:
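Corrector readout: membrane-potential FRET (CC2-DMPE donor, DiSBAC2(3) acceptor) on VIPR II after Cl⁻-free gluconate bath with 10 μM forskolin and 20 μM genistein. Before this, F508del-expressing NIH3T3 cells were exposed to test compound for 16 h at 37 °C without serum; 27 °C incubation served as temperature-correction control.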
With `COc1cccc(-c2ccc(C(=O)NS(=O)(=O)N3CC[C@H](N)C3)c(N3C[C@@H](C)CC3(C)C)n2)c1` [Compound 2240, N-[(3S)-3-aminopyrrolidin-1-yl]sulfonyl-6-(3-methoxyphenyl)-2-[(4S)-2,2,4-trimethylpyrrolidin-1-yl]pyridine-3-carboxamide], the EC30 lay in the range of 3 to 10 µM.
Consider `CC1CN(c2ncccc2C(=O)NS(=O)(=O)c2cccc(Oc3cccc4[nH]ccc34)n2)C(C)(C)C1` (centres unmarked) [Compound 2338, N—[[6-(1H-indol-4-yloxy)-2-pyridyl]sulfonyl]-2-(2,2,4-trimethylpyrrolidin-1-yl)pyridine-3-carboxamide], for which the EC30 was below 3 µM.
On to `CC1CN(c2ncccc2C(=O)NS(=O)(=O)c2cccc(Oc3ccc(-n4ccnc4)cc3)n2)C(C)(C)C1` (centres unmarked) [Compound 2441, N—[[6-(4-imidazol-1-ylphenoxy)-2-pyridyl]sulfonyl]-2-(2,2,4-trimethylpyrrolidin-1-yl)pyridine-3-carboxamide], for which the EC30 fell in the range of 3 to 10 µM.
The same measure, in the same setting: with `CC(C)COc1cc(F)cc(-c2ccc(C(=O)NS(=O)(=O)C3CCCNC3)c(N3C[C@@H](C)CC3(C)C)n2)c1` (stereo partly drawn) [Compound 2655, 6-(3-fluoro-5-isobutoxy-phenyl)-N-(3-piperidylsulfonyl)-2-[(4S)-2,2,4-trimethylpyrrolidin-1-yl]pyridine-3-carboxamide] the figure was below 3 µM; with `CCC(CC)CNc1cccc(S(=O)(=O)NC(=O)c2cccnc2N2CC(C)CC2(C)C)n1` (centres unmarked) [Compound 2305, N—[[6-(2-ethylbutylamino)-2-pyridyl]sulfonyl]-2-(2,2,4-trimethylpyrrolidin-1-yl)pyridine-3-carboxamide], below 3 µM.
Regarding `CCCC(C)N1CCN(c2cccc(S(=O)(=O)NC(=O)c3cccnc3N3CC(C)CC3(C)C)n2)CC1` (centres unmarked) [Compound 2226, N—[[6-[4-(1-methylbutyl)piperazin-1-yl]-2-pyridyl]sulfonyl]-2-(2,2,4-trimethylpyrrolidin-1-yl)pyridine-3-carboxamide], the EC30 was 3 to 10 µM.
`CC(C)COc1cc(F)cc(-c2ccc(C(=O)NS(=O)(=O)c3cccc(N)n3)c(C3=CC(C)CC3(C)C)n2)c1` (single isomer, unassigned) [Compound 2039, N-[(6-amino-2-pyridyl)sulfonyl]-6-(3-fluoro-5-isobutoxy-phenyl)-2-(3,5,5-trimethylcyclopenten-1-yl)pyridine-3-carboxamide]: the EC30 was below 3 µM.
Consider `CC1CN(c2ncccc2C(=O)NS(=O)(=O)c2cccc(Oc3ccc4c(c3)CCCC4=O)n2)C(C)(C)C1` (centres unmarked) [Compound 2523, N—[[6-(1-oxotetralin-6-yl)oxy-2-pyridyl]sulfonyl]-2-(2,2,4-trimethylpyrrolidin-1-yl)pyridine-3-carboxamide], for which the EC30 was 3 to 10 µM.
Regarding `CCOc1ccc(-c2ccc(C(=O)NS(=O)(=O)c3ccc[nH]c3=O)c(N3C[C@@H](C)CC3(C)C)n2)cc1` [Compound 2207, 6-(4-ethoxyphenyl)-N-[(2-oxo-1H-pyridin-3-yl)sulfonyl]-2-[(4S)-2,2,4-trimethylpyrrolidin-1-yl]pyridine-3-carboxamide], the EC30 is below 3 µM.
As to `CCOc1cccc(-c2ccc(C(=O)NS(=O)(=O)c3ccc[nH]c3=O)c(N3C[C@@H](C)CC3(C)C)n2)c1` [Compound 2235, 6-(3-ethoxyphenyl)-N-[(2-oxo-1H-pyridin-3-yl)sulfonyl]-2-[(4S)-2,2,4-trimethylpyrrolidin-1-yl]pyridine-3-carboxamide], the EC30 was below 3 µM.
`Cc1ccn(CCCNc2cccc(S(=O)(=O)NC(=O)c3cccnc3N3CC(C)CC3(C)C)n2)n1` (centres unmarked) [Compound 2550, N—[[6-[3-(3-methylpyrazol-1-yl)propylamino]-2-pyridyl]sulfonyl]-2-(2,2,4-trimethylpyrrolidin-1-yl)pyridine-3-carboxamide]: the EC30 was in the range of 3 to 10 µM.

The same assay, now with this note: Table 3; compounds of Table 1 as modulators of CFTR activity; protocol not stated.
For `COc1cccc(S(=O)(=O)NC(=O)c2ccc(C(C)(C)C)nc2Oc2c(C)cc(C)cc2C)n1` [Compound 34, 6-tert-butyl-N-[(6-methoxy-2-pyridyl)sulfonyl]-2-(2,4,6-trimethylphenoxy)pyridine-3-carboxamide], the EC30 result is “+++ (“+++” means <3 uM)”.
For the compound `Cc1cc(C)c(Oc2nc(-c3ccc(C)nc3)ccc2C(=O)NS(=O)(=O)c2cccc(N)n2)c(C)c1` [Compound 513, N-[(6-amino-2-pyridyl)sulfonyl]-6-(6-methyl-3-pyridyl)-2-(2,4,6-trimethylphenoxy)pyridine-3-carboxamide], the EC30 entry is “++ (“++” means between 3 uM and 10 uM)”.
Still for that read-out and setting: with `CC(C)Oc1ccc(-c2ccc(C(=O)NS(=O)(=O)c3cccc(N)n3)c(N3[C@H](C)CC[C@@H]3C)n2)cn1` [Compound 337, N-[(6-amino-2-pyridyl)sulfonyl]-2-[(2S,5R)-2,5-dimethylpyrrolidin-1-yl]-6-(6-isopropoxy-3-pyridyl)pyridine-3-carboxamide] the entry was “+++ (“+++” means <3 uM)”; with `Cc1cc(C)c(Oc2nc(-c3ccccc3)ccc2C(=O)NS(=O)(=O)c2cccc(N)c2)c(C)c1` [Compound 231, N-(3-aminophenyl)sulfonyl-6-phenyl-2-(2,4,6-trimethylphenoxy)pyridine-3-carboxamide], “+++ (“+++” means <3 uM)”.
Take `CC(C)Oc1ccc(-c2ccc(C(=O)NS(=O)(=O)c3cccc(N)n3)c(N3CCCC(c4ccccn4)C3)n2)cn1` (centres unmarked) [Compound 489, N-[(6-amino-2-pyridyl)sulfonyl]-6-(6-isopropoxy-3-pyridyl)-2-[3-(2-pyridyl)-1-piperidyl]pyridine-3-carboxamide]: the 30% effect concentration (EC30) result is “+++ (“+++” means <3 uM)”.
Regarding `COc1ccc2cc(C(=O)NS(=O)(=O)c3cccc(N)c3)n(Cc3c(C)cccc3C)c2c1` [Compound 116, N-(3-aminophenyl)sulfonyl-1-[(2,6-dimethylphenyl)methyl]-6-methoxy-indole-2-carboxamide], the EC30 result is “++ (“++” means between 3 uM and 10 uM)”.
For `Cc1cccc(C)c1Cn1nc(-c2ccccc2C(F)(F)F)cc1C(=O)NS(=O)(=O)c1ccccc1` [Compound 369, N-(benzenesulfonyl)-2-[(2,6-dimethylphenyl)methyl]-5-[2-(trifluoromethyl)phenyl]pyrazole-3-carboxamide], the EC30 result is “+++ (“+++” means <3 uM)”.
Same read-out and setting: for `COc1cccc(-c2ccc(C(=O)NS(=O)(=O)c3ccc[nH]c3=O)c(N3[C@H](C)CC[C@@H]3C)n2)n1` [Compound 781, 2-[(2S,5R)-2,5-dimethylpyrrolidin-1-yl]-6-(6-methoxy-2-pyridyl)-N-[(2-oxo-1H-pyridin-3-yl)sulfonyl]pyridine-3-carboxamide] the value was “+ (“+” means greater than 10 uM)”; for `Cc1ccc(-c2ccc(C(=O)NS(=O)(=O)c3nccnc3N)c(Oc3ccc(C)cc3C)n2)cc1` [Compound 607, N-(3-aminopyrazin-2-yl)sulfonyl-2-(2,4-dimethylphenoxy)-6-(p-tolyl)pyridine-3-carboxamide], “+++ (“+++” means <3 uM)”; for `Cc1cc(C)c(Cn2c(C(=O)NS(=O)(=O)c3ccccn3)cc3ccccc32)c(C)c1` [Compound 247, N-(2-pyridylsulfonyl)-1-[(2,4,6-trimethylphenyl)methyl]indole-2-carboxamide], “+++ (“+++” means <3 uM)”.
`C[C@@H]1CC[C@H](C)N1c1nc(-c2cc(F)cc(OCC3CC3)c2)ccc1C(=O)NS(=O)(=O)c1ccc[nH]c1=O` [Compound 541, 6-[3-(cyclopropylmethoxy)-5-fluoro-phenyl]-2-[(2S,5R)-2,5-dimethylpyrrolidin-1-yl]-N-[(2-oxo-1H-pyridin-3-yl)sulfonyl]pyridine-3-carboxamide]: the EC30 result is “+++ (“+++” means <3 uM)”.
Regarding `COc1cccnc1S(=O)(=O)NC(=O)c1cc2ccccc2n1Cc1c(C)cc(C)cc1C` [Compound 258, N-[(3-methoxy-2-pyridyl)sulfonyl]-1-[(2,4,6-trimethylphenyl)methyl]indole-2-carboxamide], the EC30 entry was “++ (“++” means between 3 uM and 10 uM)”.
Regarding `CC(C)Oc1ccc(-c2ccc(C(=O)NS(=O)(=O)c3cccc(N)n3)c(N3CC4C(C3)C4(C)C)n2)cn1` (centres unmarked) [Compound 596, N-[(6-amino-2-pyridyl)sulfonyl]-2-(6,6-dimethyl-3-azabicyclo[3.1.0]hexan-3-yl)-6-(6-isopropoxy-3-pyridyl)pyridine-3-carboxamide], the EC30 entry was “++ (“++” means between 3 uM and 10 uM)”.
On to `CCC(CC)Oc1cccc(-c2ccc(C(=O)NS(=O)(=O)c3cccc(N)n3)c(N3CC(C)CC3(C)C)n2)n1` (centres unmarked) [Compound 580, N-[(6-amino-2-pyridyl)sulfonyl]-6-[6-(1-ethylpropoxy)-2-pyridyl]-2-(2,2,4-trimethylpyrrolidin-1-yl)pyridine-3-carboxamide], for which the EC30 entry was “+++ (“+++” means <3 uM)”.
The same measure, in the same setting: for `COc1ncccc1S(=O)(=O)NC(=O)c1cc2cc(C)ccc2n1Cc1c(C)cc(C)cc1C` [Compound 267, N-[(2-methoxy-3-pyridyl)sulfonyl]-5-methyl-1-[(2,4,6-trimethylphenyl)methyl]indole-2-carboxamide] the value was “+++ (“+++” means <3 uM)”; for `C[C@@H]1CC[C@H](C)N1c1nc(-c2ccccc2)ccc1C(=O)NS(=O)(=O)c1ccc[nH]c1=O` [Compound 660, 2-[(2S,5R)-2,5-dimethylpyrrolidin-1-yl]-N-[(2-oxo-1H-pyridin-3-yl)sulfonyl]-6-phenyl-pyridine-3-carboxamide], “+ (“+” means greater than 10 uM)”; for `CC(C)COc1cc(F)cc(-c2ccc(C(=O)NS(=O)(=O)c3ccn[nH]3)c(N3CCC(C(C)C)CC3)n2)c1` [Compound 553, 6-(3-fluoro-5-isobutoxy-phenyl)-2-(4-isopropyl-1-piperidyl)-N-(1H-pyrazol-5-ylsulfonyl)pyridine-3-carboxamide], “+++ (“+++” means <3 uM)”.
As to `COc1ncccc1S(=O)(=O)NC(=O)c1ccc(C(C)(C)C)nc1Oc1c(C)cc(C)cc1C` [Compound 191, 6-tert-butyl-N-[(2-methoxy-3-pyridyl)sulfonyl]-2-(2,4,6-trimethylphenoxy)pyridine-3-carboxamide], the EC30 entry is given as “+++ (“+++” means <3 uM)”.
